Assay results from PMC6591251, “Discovery of potent necroptosis inhibitors targeting RIPK1 kinase activity for the treatment of inflammatory disorder and cancer metastasis” (Cell Death & Disease, 2019).
Read-outs that look alike come from different tables or passages of the source.

Tests used:
HT-29 cells = assay: TNF-induced necroptosis (TNFα/Smac mimetic/z-VAD), cell viability by ATP levels; format: cell-based, human
Protocol: (§1) Necroptosis is tightly regulated by RIP kinases including RIPK1 and RIPK3. To develop new necroptosis inhibitors, we screened a small-molecule library of around 240 potential kinase inhibitors that were designed with novel structures to affect the ATP-binding pocket of protein kinases. Human colon cancer HT-29 cells were treated with these compounds for […], followed by treatment with necroptotic stimuli (TNFα, Smac mimetic, and z-VAD) that are known to activate TNF-mediated necroptosis. After 48 h, cell viability was analyzed by monitoring ATP levels.
(§2) Fig. 1 PK6 efficiently blocks TNF-α induced necroptosis in both human and mouse cells. a HT-29 cells cultured in 96-well plates were pretreated with the indicated compounds (10 μM) from a library consisting of ~240 compounds that we designed with novel structures for 1 h and subsequently treated with 40 ng/ml TNF-α (T), 100 nM Smac mimetic (S), and the caspase inhibitor 20 μM z-VAD(Z) for 48 h. Cell viability was assessed by measuring ATP levels. Data are represented as the mean ± standard deviation of duplicates. b Chemical structure of PK6. c Dose response curve and EC50 ± SD value for PK6 in TNF-α induced necroptosis in HT-29 cells. Cells were pretreated with indicated concentrations of PK6 for 1 h prior to the treatment with T (40 ng/ml), S (100 nM), and Z (20 μM) for 48 h. Cell viability was assessed by measuring ATP levels. d U937 cells were pretreated with indicated concentrations of PK6 for 1 h followed by the treatment with T (40 ng/ml), S (100 nM), and Z (20 μM) for 24 h. e MEF cells were pretreated with indicated concentrations of PK6 for 1 h followed by the treatment with T (40 ng/ml), S (100 nM), and Z (20 μM) for 24 h. f L929 cells were pretreated with indicated concentrations of PK6 for 1 h prior to the treatment with S (100 nM) and Z (20 μM) for 24 h.
(§3) Fig. 2 Chemical optimization of PK6 leads to improvements in anti-necroptotic activity. a, b The effects of the indicated compounds on cell viability were examined in HT-29 cells (a) and L929 cells (b). HT-29 cells were treated as indicate for 48 h and L929 cells for 24 h. Cell viability was assessed by measuring ATP levels. Data are represented as the mean ± standard deviation of triplicates. c Structure and EC50 ± SD value of each compound are shown in the table. EC50 values are the average of at least two independent determinations. d Lead optimization of PK6 TEXT PRINTED IN THE PICTURE: (c) PK6: EC50(nM) HT-29: 1200±53; EC50(nM) L929: 760±26 | (c) PK67: EC50(nM) HT-29: 250±6.3; EC50(nM) L929: 130±6.8 | (c) PK81: EC50(nM) HT-29: 120±7.6; EC50(nM) L929: 20±0.98 | (c) PK84: EC50(nM) HT-29: 97±6.7; EC50(nM) L929: 45±2.1 | (c) PK93: EC50(nM) HT-29: 130±36; EC50(nM) L929: 30±7.4 | (c) PK86: EC50(nM) HT-29: 73±3.9; EC50(nM) L929: 15±1.0 | (c) PK68: EC50(nM) HT-29: 23±1.4; EC50(nM) L929: 13±0.85
(§4) The cell viability was analyzed by using the CellTiter-Glo Luminescent Cell Viability Assay kit following the manufacturer’s instructions (Promega). Luminescence was measured with SpectraMax i3x (Molecular Devices).

L929 cells = assay: TNF-induced necroptosis, cell viability by ATP levels; format: cell-based; conditions: Mus musculus, L929, 24 h
Protocol: as §1, §2, §3, §4

[1] = system: phosphorylation of RIPK1, RIPK3, and MLKL in HT-29 cells; assay: Western blot of necroptotic signaling after T/S/Z; format: cell-based, human; conditions: T/S/Z 8 h
Description: In addition to TNF-induced necroptosis, it is known that TLR3 or TLR4 activation can also trigger necroptosis. We further evaluated the effects of PK6 and PK68 on TLR3- and TLR4-mediated necroptosis induced by poly(I:C)/z-VAD and LPS/z-VAD, respectively. […] To investigate the molecular mechanism of PK series-mediated necroptosis inhibition, we examined the effects of these compounds on the major steps of necroptotic signaling, including activation of RIPK1, RIPK3, and MLKL. […] It has been shown previously that RIPK3 activation leads to the formation of RIPK3 puncta during necroptosis.
Fig. 3 PK6 and PK68 block cellular activation of RIPK1, RIPK3, and MLKL upon necroptotic stimuli. a, b Bone marrow-derived macrophages from C57BL/6 mice or rat were pretreated with DMSO, PK6(10 μM), or PK68 (100 nM) for 1 h and subsequently treated with indicated stimuli for 24–30 h. Cell viability was determined by measuring ATP levels. L, LPS (20 ng/ml); P, poly(I:C) (50 μg/ml); S (100 nM); Z (10 μM). Data are represented as the mean ± standard deviation of triplicates. c HT-29 cells were treated with the indicated compound for 1 h prior to the treatment of T (40 ng/ml), S (100 nM), and Z (20 μM) for additional 8 h. […] The distribution of RIPK3 was detected by immunofluorescence. *P < 0.05. **P < 0.01. ***P < 0.001 […]

SMILES | EC50 (HT-29 cells; Homo sapiens, HT-29, 48 h, T 40 ng/ml, S 100 nM, Z 20 μM, 48 h, read-out: EC50, TNF-induced necroptosis) [nM] | EC50 (L929 cells; S 100 nM and Z 20 μM, read-out: EC50, TNF-induced necroptosis) [nM] | phosphorylation of RIPK1, RIPK3, and MLKL [1] | EC50 (HT-29 cells; Homo sapiens, HT-29, 48 h, T/S/Z 48 h, read-out: EC50(nM) HT-29) [nM] | EC50 (HT-29 cells; T/S/Z 48 h, read-out: EC50(nM) HT-29) [nM] | EC50 (L929 cells; read-out: EC50(nM) L929) [nM]
CC(=O)Nc1nc2ccc(-c3cnc(Cl)c(NC(=O)Cc4ccccc4)c3)cc2s1 [PK6, N-(5-(2-acetamidobenzo[d]thiazol-6-yl)-2-chloropyridin-3-yl)-2-phenylacetamide] | ~1200 | ~760 | completely abolished |  |  | 
CC(=O)Nc1nc2ccc(-c3cnc(C)c(NC(=O)OC4CCCCC4)c3)cc2s1 [PK68, cyclohexyl (5-(2-acetamidobenzo[d]thiazol-6-yl)-2-methylpyridin-3-yl)carbamate] |  |  | completely abolished | 23 | ~20 | 13
